Data on eight compounds can be found in patent US5770603A, “Quinazoline derivatives” (Zeneca Limited, priority 1996, dated 1998).

Test [1] deals with T1, EGF receptor tyrosine kinase (Homo sapiens, UniProt P00533).
T1 construct: Receptor tyrosine kinase was obtained in partially purified form from A-431 cells; endogenous in cells; host or cells: A-431 cells (human vulval carcinoma), Triton X-100 solubilised pelleted material
In words: Test (a): in vitro inhibition of the enzyme EGF receptor tyrosine kinase (partially purified from A-431 cells). The format is biochemical. The note with it: example values stated as approximate. Here is the method:
(a) An in vitro assay which determines the ability of a test compound to inhibit the enzyme EGF receptor tyrosine kinase. Receptor tyrosine kinase was obtained in partially purified form from A-431 cells (derived from human vulval carcinoma) by the procedures described below which are related to those described by Carpenter et al, J. Biol. Chem., 1979, 254, 4884, Cohen et al, J. Biol. Chem., 1982, 257, 1523 and by Braun et al., J. Biol. Chem., 1984, 259, 2051.
A-431 cells were grown to confluence using Dulbecco's modified Eagle's medium (DMEM) containing 5% fetal calf serum (FCS). The obtained cells were homogenised in a hypotonic borate/EDTA buffer at pH 10.1. The homogenate was centrifuged at 400 g for 10 minutes at 0°-4° C. The supernatant was centrifuged at 25,000 g for 30 minutes at 0°-4° C. The pelleted material was suspended in 30 mM Hepes buffer at pH 7.4 containing 5% glycerol, 4 mM benzamidine and 1% Triton X-100, stirred for 1 hour at 0°-4° C., and recentrifuged at 100,000 g for 1 hour at 0°-4° C. The supernatant, containing solubilised receptor tyrosine kinase, was stored in liquid nitrogen.
For test purposes 40 μl of the enzyme solution so obtained was added to a mixture of 400 μl of a mixture of 150 mM Hepes buffer at pH 7.4, 500 μM sodium orthovanadate, 0.1% Triton X-100, 10% glycerol, 200 μl water, 80 μl of 25 mM DTT and 80 μl of a mixture of 12.5 mM manganese chloride, 125 mM magnesium chloride and distilled water. There was thus obtained the test enzyme solution.
Equal volumes of this solution and a solution of epidermal growth factor (EGF; 20 μg/ml) were mixed.
[y-^32 P]ATP (3000 Ci/mM, 250 μCi) was diluted to a volume of 2 ml by the addition of a solution of ATP (100 μM) in distilled water. An equal volume of a 4 mg/ml solution of the peptide […]in a mixture of 40 mM Hepes buffer at pH 7.4, 0.1% Triton X-100 and 10% glycerol was added.
The test compound/EGF mixture solution (5 μl) was added to the test enzyme solution (10 μl) and the mixture was incubated at 0°-4° C. for 30 minutes. The ATP/peptide mixture (10 μl) was added and the mixture was incubated at 25° C. for 10 minutes. The phosphorylation reaction was terminated by the addition of 5% trichloroacetic acid (40 μl) and bovine serum albumin (BSA; 1 mg/ml, 5 μl). The mixture was allowed to stand at 4° C. for 30 minutes and then centrifuged. An aliquot (40 μl) of the supernatant was placed onto a strip of Whatman p 81 phosphocellulose paper. The strip was washed in 75 mM phosphoric acid (4×10 ml) and blotted dry. Radioactivity present in the filter paper was measured using a liquid scintillation counter (Sequence A). The reaction sequence was repeated in the absence of the EGF (Sequence B) and again in the absence of the test compound (Sequence C).
Receptor tyrosine kinase inhibition was calculated as follows: [formula]

Test [2] relates to human naso-pharyngeal cancer cell line KB. The experiment in a line: Test (b): in vitro inhibition of EGF-stimulated growth of the human naso-pharyngeal cancer cell line KB. The note with it: 72 h, EGF 10 ng/ml, 3 days incubation, MTT, example values stated as approximate. It is filed as cell-based. Here is the method: (b) An in vitro assay which determines the ability of a test compound to inhibit the EGF-stimulated growth of the human naso-pharyngeal cancer cell line KB.
Cell growth was determined after incubation for 3 days by the extent of metabolism of MTT tetrazolium dye to furnish a bluish colour. Cell growth was then determined in the presence of EGF (10 ng/ml) or in the presence of EGF (10 ng/ml) and a test compound at a range of concentrations. An lC50 value could then be calculated.

Test [3] relates to transplanted human mammary carcinoma which expresses EGF receptor tyrosine kinase. The conditions noted are these: athymic nude mice; EGF receptor tyrosine kinase expressing; Toi et al., 1990; cited from earlier work.
Test [4] relates to carcinoma which does not express EGF receptor tyrosine kinase. The note with it: carcinoma not expressing EGF receptor tyrosine kinase; Toi et al., 1990; cited from earlier work.
The test system of test [5] is xenografts of the human vulval epidermoid carcinoma cell line A-431. In words: Test (c): in-vivo inhibition of growth of A-431 xenografts in athymic nude mice. The arrangement: species or system human (xenograft in athymic nude mice). The conditions noted are these: Mus musculus, daily dosing, usually oral, tumour volume inhibition relative to untreated controls. The procedure:
(c) An in-vivo assay in a group of athymic nude mice (strain ONU:Alpk) which determines the ability of a test compound (usually administered orally as a ball-milled suspension in 0.5% polysorbate) to inhibit the growth of xenografts of the human vulval epidermoid carcinoma cell line A-431. A-431 cells were maintained in culture in DMEM supplemented with 5% FCS nd 2 mM glutamine. Freshly cultured cells were harvested by trypsinization and injected subcutaneously (10 million cells/0.1 ml/mouse) into both flanks of a number of donor nude mice. When sufficient tumour material was available (after approximately 9 to 14 days), fragments of tumour tissue were transplanted in the flanks of recipient nude mice (test day 0). […] In some studies the dosing of the test compound was continued beyond test day 19, for example to test day 26. In each case, on the following test day the animals were killed and the final tumour volume was calculated from measurements of the length and width of the tumours. Results were calculated as a percentage inhibition of tumour volume relative to untreated controls.

Test [6] deals with EGF receptor tyrosine kinase. The conditions noted are these: Fry et al., Science, 1994, 265, 1093; cited from earlier work.

Broadly, the IC50 is the concentration that inhibits the measured activity by half. Low readings indicate higher potency, high ones lower potency. As a reminder, the ED50 is the midpoint of the dose-response relation.

Each structure is given as a SMILES string. Several values for one entry are separate records, joined by “and”; a condition that tells them apart may be missing. Equal entries are not always repeated.

T1 sequence (P00533 25-1210): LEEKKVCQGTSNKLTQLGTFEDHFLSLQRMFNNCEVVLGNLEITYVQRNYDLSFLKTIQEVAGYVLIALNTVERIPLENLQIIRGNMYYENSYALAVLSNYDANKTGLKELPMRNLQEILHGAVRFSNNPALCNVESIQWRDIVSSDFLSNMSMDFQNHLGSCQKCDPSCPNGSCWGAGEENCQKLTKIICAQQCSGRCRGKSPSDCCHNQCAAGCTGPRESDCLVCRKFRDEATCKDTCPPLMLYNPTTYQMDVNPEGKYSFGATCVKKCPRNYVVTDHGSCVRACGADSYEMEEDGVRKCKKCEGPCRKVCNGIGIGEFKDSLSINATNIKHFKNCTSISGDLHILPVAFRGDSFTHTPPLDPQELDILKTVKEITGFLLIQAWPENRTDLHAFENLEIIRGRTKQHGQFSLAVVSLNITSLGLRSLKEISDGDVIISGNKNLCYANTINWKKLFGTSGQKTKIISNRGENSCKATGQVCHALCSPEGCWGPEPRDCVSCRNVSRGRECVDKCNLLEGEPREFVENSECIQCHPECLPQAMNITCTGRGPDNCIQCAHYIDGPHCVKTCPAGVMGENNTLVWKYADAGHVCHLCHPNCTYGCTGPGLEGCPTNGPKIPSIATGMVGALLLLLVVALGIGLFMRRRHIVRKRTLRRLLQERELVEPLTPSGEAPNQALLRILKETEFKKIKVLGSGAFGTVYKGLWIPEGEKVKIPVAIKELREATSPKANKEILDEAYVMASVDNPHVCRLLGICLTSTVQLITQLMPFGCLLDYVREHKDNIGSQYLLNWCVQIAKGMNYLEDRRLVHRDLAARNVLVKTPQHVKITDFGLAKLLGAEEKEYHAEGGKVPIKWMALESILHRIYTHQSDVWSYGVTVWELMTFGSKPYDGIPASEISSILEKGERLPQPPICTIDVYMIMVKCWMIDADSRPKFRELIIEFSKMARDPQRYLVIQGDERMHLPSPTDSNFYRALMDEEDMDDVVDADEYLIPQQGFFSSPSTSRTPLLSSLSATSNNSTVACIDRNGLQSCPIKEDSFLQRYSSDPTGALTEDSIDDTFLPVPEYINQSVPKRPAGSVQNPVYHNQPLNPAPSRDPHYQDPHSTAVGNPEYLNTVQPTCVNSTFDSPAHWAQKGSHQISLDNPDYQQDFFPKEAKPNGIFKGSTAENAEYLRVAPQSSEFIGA

Take `COc1cc2ncnc(Nc3ccc(F)c(Cl)c3)c2cc1OCC1OCCO1` [Example 2, 4-(3'-chloro-4'-fluoroanilino)-6-(1,3-dioxolan-2-ylmethoxy)-7-methoxyquinazoline]: the IC50 in test [1] worked out at 10 nM; in test [2], 200 nM.
For `COc1cc2ncnc(Nc3ccc(F)c(Cl)c3)c2cc1OCCC1OCCCO1` [Example 8, 4-(3'-chloro-4'-fluoroanilino)-6-[2-(1,3-dioxan-2-yl)ethoxy]-7-methoxyquinazoline] the same measures were 5 nM and 40 nM.
For `O=CN/C=C/c1cc(O)ccc1O` [erbstatin], the “growth of transplanted human mammary carcinoma (in words)” value in test [3] is on record as “specifically attenuates the growth”. In addition, the “growth of another carcinoma (in words)” value in test [4] is given as “without effect on the growth”.
On to `COc1cc2ncnc(Nc3ccc(F)c(Cl)c3)c2cc1OCCC1OCCO1` [Example 3, 4-(3'-chloro-4'-fluoroanilino)-6-[2-(1,3-dioxolan-2-yl)ethoxy]-7-methoxyquinazoline], for which the half-inhibitory concentration (IC50) in test [1] turned out to be 10 nM; in test [2] it was 330 nM. The same compound displayed a 50% effective dose (ED50) in test [5] of approximately 50 mg/kg.
`COc1cc2ncnc(Nc3ccc(F)c(Cl)c3)c2cc1OCC1COCO1` (stereo not shown) [Example 5, 4-(3'-chloro-4'-fluoroanilino)-6-(1,3-dioxolan-4-ylmethoxy)-7-methoxyquinazoline]: the figures for the half-inhibitory concentration (IC50) in test [1] and in test [2] were 15 nM and 140 nM, respectively.
For `COc1cc2ncnc(Nc3ccc(F)c(Cl)c3)c2cc1OCCCC1OCCO1` [Example 4, 4-(3'-chloro-4'-fluoroanilino)-6-[3-(1,3-dioxolan-2-yl)propoxy]-7-methoxyquinazoline] the same measures were 40 nM and 140 nM.
On to `COc1cc2ncnc(Nc3ccc(F)c(Cl)c3)c2cc1OCC1(C)COC1` [Example 10, 4-(3'-chloro-4'-fluoroanilino)-7-methoxy-6-(3-methyloxetan-3-ylmethoxy)quinazoline], for which the IC50 in test [1] was 10 nM and 34 nM; in test [2], 65 nM.
For the compound `COc1cc2ncnc(Nc3cccc(Br)c3)c2cc1OC` [4-(3'-bromoanilino)-6,7-dimethoxyquinazoline], the “inhibitor of EGF receptor tyrosine kinase (in words)” value in test [6] is recorded as “highly potent inhibitor”.
